According to patent publication US8129380B2, “Phthalazinone derivatives” (AstraZeneca AB, priority 2008, dated 2012):

Tested on: HeLa cells
Assay: Potentiation Factor (PF50): MMS growth inhibition, SRB assay
Assay type: cell-based
Settings: MMS 0-10 μg/ml, ratio IC50 control / IC50 + inhibitor; for PF50 (30 nM): PARP inhibitor at 30 nM; for PF50 (200 nM): PARP inhibitor at 200 nM
Experimental: The Potentiation Factor (PF50) for compounds is calculated as a ratio of the IC50 of control cell growth divided by the IC50 of cell growth+PARP inhibitor. Growth inhibition curves for both control and compound treated cells are in the presence of the alkylating agent methyl methanesulfonate (MMS). The test compounds were used at a fixed concentration of 0.2 micromolar. The concentrations of MMS were over a range from 0 to 10 μg/ml.
2,000 HeLa cells were seeded into each well of a flat-bottomed 96-well microtiter plate in a volume of 100 μl and incubated for 6 hours at 37° C. Cells were either replaced with media alone or with media containing PARP inhibitor at a final concentration of 30 nM or 200 nM. […] Cells treated with PARP inhibitor alone were used to assess the growth inhibition by the PARP inhibitor.
Cells were left for a further 16 hours before replacing the media and allowing the cells to grow for a further 72 hours at 37° C. The media was then removed and the cells fixed with 100 μl of ice cold 10% (w/v) trichloroacetic acid. The plates were incubated at 4° C. for 20 minutes and then washed four times with water. Each well of cells was then stained with 100 μl of 0.4% (w/v) SRB in 1% acetic acid for 20 minutes before washing four times with 1% acetic acid. Plates were then dried for 2 hours at room temperature. The dye from the stained cells was solubilized by the addition of 100 μl of 10 mM Tris Base into each well.

Compound	PF50 (30 nM)	PF50 (200 nM)
O=C(COC1CCN(C(=O)c2cc(Cc3n[nH]c(=O)c4ccccc34)ccc2F)CC1)N1CCOCC1 [Compound 77, 4-(4-fluoro-3-(4-(2-morpholino-2-oxoethoxy)piperidine-1-carbonyl)benzyl)phthalazin-1(2H)-one]	3.1	
O=C(c1cc(Cc2n[nH]c(=O)c3ccccc23)ccn1)N1CCC(Oc2ccccc2)CC1 [Compound 6d]	1.4	3.5
COC1CCN(C(=O)c2cc(Cc3n[nH]c(=O)c4cc(Cl)ccc34)ccc2F)CC1 [Compound 69, 7-chloro-4-(4-fluoro-3-(4-methoxypiperidine-1-carbonyl)benzyl)phthalazin-1(2H)-one]	1.7	
N#CCc1ccc(OC2CCN(C(=O)c3cc(Cc4n[nH]c(=O)c5ccccc45)ccc3F)CC2)cc1 [Compound 8f, 2-[4-[1-[2-fluoro-5-[(4-oxo-3H-phthalazin-1-yl)methyl]benzoyl]piperidin-4-yl]oxyphenyl]acetonitrile]	4.1	
Cc1cnc(C)c(OC2CCN(C(=O)c3cc(Cc4n[nH]c(=O)c5ccccc45)ccc3F)CC2)n1 [Compound 26j]	1.2	
Cc1ccc(OC2CCN(C(=O)c3cc(Cc4n[nH]c(=O)c5ccccc45)ccc3F)CC2)nn1 [Compound 26b]	1.5	
CCCOC1CCN(C(=O)c2cc(Cc3n[nH]c(=O)c4ccccc34)ccc2F)CC1 [Compound 8c, 4-[[4-fluoro-3-(4-propoxypiperidine-1-carbonyl)phenyl]methyl]-2H-phthalazin-1-one]	12.2	
CC(C)COC1CCN(C(=O)c2cccc(Cc3n[nH]c(=O)c4c(F)ccc(F)c34)c2)CC1 [Compound 4c]	1.2	
COC1CCN(C(=O)c2cc(Cc3n[nH]c(=O)c4ccc(N)cc34)ccc2F)CC1 [Compound 99, 6-amino-4-(4-fluoro-3-(4-methoxypiperidine-1-carbonyl)benzyl)phthalazin-1(2H)-one]	1.0	
CC(C)OC1CCN(C(=O)c2cc(Cc3n[nH]c(=O)c4ccccc34)ccc2F)CC1 [Compound 11, 4-(4-fluoro-3-(4-isopropoxypiperidine-1-carbonyl)benzyl)phthalazin-1(2H)-one]	33.6	
O=C(c1cc(Cc2n[nH]c(=O)c3ccccc23)ccc1F)N1CCC(Oc2cnccn2)CC1 [Compound 26d]	4.0	
O=C(c1cc(Cc2n[nH]c(=O)c3ccccc23)ccc1F)N1CCC(Oc2ccncn2)CC1 [Compound 26a, 4-(4-fluoro-3-(4-(pyrimidin-4-yloxy)piperidine-1-carbonyl)benzyl)phthalazin-1(2H)-one]	3.7	
O=C(c1cc(Cc2n[nH]c(=O)c3ccccc23)ccc1F)N1CCC(OCC2CCCO2)CC1 (stereo not drawn) [Compound 20, 4-[[4-fluoro-3-[4-(oxolan-2-ylmethoxy)piperidine-1-carbonyl]phenyl]methyl]-2H-phthalazin-1-one]	2.0	
O=C(c1cc(Cc2n[nH]c(=O)c3ccccc23)ccc1F)N1CCC(OC(F)F)CC1 [Compound 19, 4-(3-(4-(difluoromethoxy)piperidine-1-carbonyl)-4-fluorobenzyl)phthalazin-1(2H)-one]	2.5	
CC(C)(C)OC1CCN(C(=O)c2cccc(Cc3n[nH]c(=O)c4ccccc34)c2)CC1 [Compound 71, 4-[[3-[4-[(2-methylpropan-2-yl)oxy]piperidine-1-carbonyl]phenyl]methyl]-2H-phthalazin-1-one]	4.0	8.9
COc1ccc(OC2CCN(C(=O)c3cc(Cc4n[nH]c(=O)c5ccccc45)ccc3F)CC2)cc1 [Compound 8b, 4-[[4-fluoro-3-[4-(4-methoxyphenoxy)piperidine-1-carbonyl]phenyl]methyl]-2H-phthalazin-1-one]	23.6	
CCOC1CCN(C(=O)c2cccc(Cc3n[nH]c(=O)c4ccccc34)c2)CC1 [Compound 47a, 4-(3-(4-ethoxypiperidine-1-carbonyl)benzyl)phthalazin-1(2H)-one]	1.8	

Compound	PF50 (30 nM)	PF50 (200 nM)
O=C(c1cc(Cc2n[nH]c(=O)c3ccccc23)ccc1F)N1CCC(Oc2ccncc2)CC1 [Compound 2j]	3.0	
O=C(COC1CCN(C(=O)c2cc(Cc3n[nH]c(=O)c4ccccc34)ccc2F)CC1)N1CCCC1 [Compound 107, 4-(4-fluoro-3-(4-(2-oxo-2-(pyrrolidin-1-yl)ethoxy)piperidine-1-carbonyl)benzyl)phthalazin-1(2H)-one]	1.7	
CCOC1CCN(C(=O)c2cc(Cc3n[nH]c(=O)c4c(C)[nH]c(C)c34)ccc2F)CC1 [Compound 54, 4-(3-(4-ethoxypiperidine-1-carbonyl)-4-fluorobenzyl)-5,7-dimethyl-2,6-dihydro-1H-pyrrolo[3,4-d]pyridazin-1-one]	1.3	
COC1CCN(C(=O)c2cc(Cc3n[nH]c(=O)c4c(C)[nH]c(C)c34)ccc2F)CC1 [Compound 58, 4-(4-fluoro-3-(4-methoxypiperidine-1-carbonyl)benzyl)-5,7-dimethyl-2,6-dihydro-1H-pyrrolo[3,4-d]pyridazin-1-one]	1.0	
CC(C)COC1CCN(C(=O)c2cc(Cc3n[nH]c(=O)c4ccccc34)ccc2F)CC1 [Compound 2h]	2.9	
CCOC1CCN(C(=O)c2cc(Cc3n[nH]c(=O)c4cccc(OC)c34)ccc2F)CC1 [Compound 126b, 4-(3-(4-ethoxypiperidine-1-carbonyl)-4-fluorobenzyl)-5-methoxyphthalazin-1(2H)-one]	7.4	
COC1CCN(C(=O)c2cc(Cc3n[nH]c(=O)c4cccc(Cl)c34)ccc2F)CC1 [Compound 104a, 5-chloro-4-(4-fluoro-3-(4-methoxypiperidine-1-carbonyl)benzyl)phthalazin-1(2H)-one]	1.3	
O=C(c1cc(Cc2n[nH]c(=O)c3ccccc23)ccc1F)N1CCC(Oc2ccc(F)cc2)CC1 [Compound 2c]	1.9	7
CC(C)(C)OC1CCN(C(=O)c2cc(Cc3n[nH]c(=O)c4ccccc34)ccn2)CC1 [Compound 73, 4-((2-(4-tert-butoxypiperidine-1-carbonyl)pyridin-4-yl)methyl)phthalazin-1(2H)-one]	6.2	27.8
CC(C)OC1CCN(C(=O)c2cc(Cc3n[nH]c(=O)c4ccccc34)ccn2)CC1 [Compound 25, 4-[[2-(4-propan-2-yloxypiperidine-1-carbonyl)pyridin-4-yl]methyl]-2H-phthalazin-1-one]	2.1	
O=C(c1cc(Cc2n[nH]c(=O)c3ccccc23)ccc1F)N1CCC(OC2CCCC2)CC1 [Compound 36, 4-(3-(4-(cyclopentyloxy)piperidine-1-carbonyl)-4-fluorobenzyl)phthalazin-1(2H)-one]	14.5	24.3
O=C(c1cc(Cc2n[nH]c(=O)c3ccccc23)ccc1F)N1CCC(OC(CF)CF)CC1 [Compound 29, 4-(3-(4-(1,3-difluoropropan-2-yloxy)piperidine-1-carbonyl)-4-fluorobenzyl)phthalazin-1(2H)-one]	25.9	
O=C(c1cc(Cc2n[nH]c(=O)c3ccccc23)ccc1F)N1CCC(OCc2ccccc2)CC1 [Compound 8e, 4-[[4-fluoro-3-(4-phenylmethoxypiperidine-1-carbonyl)phenyl]methyl]-2H-phthalazin-1-one]	1.4	
COC1CCN(C(=O)c2cc(Cc3n[nH]c(=O)c4c(C)n(C)c(C)c34)ccc2F)CC1 [Compound 60, 4-(4-fluoro-3-(4-methoxypiperidine-1-carbonyl)benzyl)-5,6,7-trimethyl-2,6-dihydro-1H-pyrrolo[3,4-d]pyridazin-1-one]	1.0	
O=C(c1cc(Cc2n[nH]c(=O)c3ccccc23)ccc1F)N1CCC(OC2CCC2)CC1 [Compound 15, 4-(3-(4-cyclobutoxypiperidine-1-carbonyl)-4-fluorobenzyl)phthalazin-1(2H)-one]	4.4	
N#Cc1ccc(OC2CCN(C(=O)c3cc(Cc4n[nH]c(=O)c5ccccc45)ccc3F)CC2)nc1 [Compound 26c]	32.4	
COC1CCN(C(=O)c2cc(Cc3n[nH]c(=O)c4c[nH]c(C)c34)ccc2F)CC1 [Compound 63, 4-(4-fluoro-3-(4-methoxypiperidine-1-carbonyl)benzyl)-5-methyl-2,6-dihydro-1H-pyrrolo[3,4-d]pyridazin-1-one]	1.0	
